The text below walks through data of PubChem BioAssay (NCI).

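1) Cells in 96-well plates. 2) Compound, 48 h, 5 concentrations. 3) Linear interpolation between surrounding doses. 4) Unreached endpoint = highest concentration. GI50 is the concentration that inhibits growth by half. The concentration for full growth arrest is given as TGI.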 Where only a bound is given, the exact number is not on record here.

Some test systems named below: A498 renal; LOX IMVI melanoma; MCF7 breast; OVCAR-5 ovarian; PC-3 prostate; SK-MEL-2 melanoma; SK-MEL-5 melanoma; SK-OV-3 ovarian; TK-10 renal; UO-31 renal.
Holding throughout (experiment): DTP human tumour cell line panel, 48 h

For orientation: GI50 means the concentration that inhibits growth by half. Broadly, the TGI is the concentration at which net growth stops. A low value points to more potent growth arrest. For `Cn1cc(C2=C(c3cn(CCCN/C(N)=N\[N+](=O)[O-])c4ccccc34)C(=O)NC2=O)c2ccccc21`, the GI50 is 2.85 µM in the assay on A498 renal; 0.949 µM with LOX IMVI melanoma; 1.15 µM with MCF7 breast; 11.4 µM in the assay on OVCAR-5 ovarian; 3.36 µM in the assay with PC-3 prostate; 0.614 µM with SK-MEL-2 melanoma. Further, the GI50 in the assay on SK-MEL-5 melanoma is 2.33 µM; with SK-OV-3 ovarian it was 3.43 µM; in the assay on TK-10 renal, 5.87 µM; in the assay on UO-31 renal it was 8.71 µM. Moreover, the TGI in the assay on A498 renal is 9.6 µM; in the assay on LOX IMVI melanoma it was 21.6 µM; with MCF7 breast, over 22.6 µM; in the assay with OVCAR-5 ovarian it was over 25 µM; in the assay with PC-3 prostate, 17.2 µM; with SK-MEL-2 melanoma it was 2.23 µM. Also, the TGI was 7.37 µM in the assay on SK-MEL-5 melanoma, over 20 µM in the assay on SK-OV-3 ovarian, 19.2 µM with TK-10 renal and 24.7 µM with UO-31 renal.
On to `O=C1COCCN1c1ccc(NCc2cn(Cc3ccc(F)cc3)c3ccccc23)cc1`, for which the GI50 in the assay on A498 renal is 0.0203 µM; with LOX IMVI melanoma, 5.32 µM; with MCF7 breast it was 0.114 µM; with OVCAR-5 ovarian, 0.0418 µM; in the assay on PC-3 prostate, 8.68 µM; in the assay with SK-MEL-2 melanoma it was 0.779 µM. Also, the GI50 with SK-MEL-5 melanoma was 2.6 µM; in the assay with SK-OV-3 ovarian, 1.65 µM; in the assay with TK-10 renal it was 0.0456 µM; in the assay on UO-31 renal, 2.42 µM. The TGI in the assay on A498 renal came out at 0.0821 µM; in the assay with LOX IMVI melanoma, 25.3 µM; with MCF7 breast it was 13 µM; with OVCAR-5 ovarian it was 0.231 µM; in the assay on PC-3 prostate, 45.2 µM; in the assay on SK-MEL-2 melanoma, 6.06 µM. Besides, the TGI in the assay with SK-MEL-5 melanoma amounted to 11.2 µM; in the assay on SK-OV-3 ovarian, 8.14 µM; in the assay on TK-10 renal it was 0.636 µM; in the assay with UO-31 renal it was 18.2 µM.
Consider `Nc1nc(-c2ccccc2Cl)cc(-c2ccc(Cl)cc2Cl)n1`, for which the GI50 in the assay on A498 renal was 3.34 µM; in the assay with LOX IMVI melanoma it was 4.89 µM; with MCF7 breast, 3.45 µM; in the assay with OVCAR-5 ovarian, 8.09 µM; in the assay on PC-3 prostate, 5.43 µM; in the assay with SK-MEL-2 melanoma it was 6.1 µM. In addition, the GI50 in the assay with SK-MEL-5 melanoma is 4.78 µM; in the assay on SK-OV-3 ovarian, 10.1 µM; in the assay on TK-10 renal it was 9.46 µM; in the assay on UO-31 renal it was 13.5 µM. Further, the TGI is 22.8 µM in the assay with A498 renal; over 100 µM in the assay with LOX IMVI melanoma; over 100 µM with MCF7 breast; over 100 µM with OVCAR-5 ovarian; over 100 µM with PC-3 prostate; 44.8 µM in the assay on SK-MEL-2 melanoma. The TGI in the assay on SK-MEL-5 melanoma is 20.8 µM; with SK-OV-3 ovarian it was 62.3 µM; in the assay with TK-10 renal, 51 µM; with UO-31 renal, over 100 µM.
As for `CC(=O)SC(C[N+](=O)[O-])c1ccccc1` (stereo not given), the TGI in the assay on A498 renal turned out to be 20.7 µM; in the assay with LOX IMVI melanoma it was 3.34 µM; with MCF7 breast, 4.35 µM; in the assay with OVCAR-5 ovarian, 9.11 µM; with PC-3 prostate, 25.7 µM; with SK-MEL-2 melanoma it was 50.3 µM. The TGI was 8.77 µM in the assay on SK-MEL-5 melanoma, 26.2 µM with SK-OV-3 ovarian, 23.6 µM in the assay on TK-10 renal and 5.37 µM with UO-31 renal.
`CN(Cc1cccc(Cl)c1)c1ccc(CO)c(Cl)c1`: the GI50 with A498 renal is 0.041 µM; in the assay with LOX IMVI melanoma it was 14.2 µM; in the assay on MCF7 breast it was 1.55 µM; in the assay on OVCAR-5 ovarian, 0.602 µM; in the assay with PC-3 prostate, 18 µM; in the assay on SK-MEL-2 melanoma, 9.88 µM. Besides, the GI50 in the assay with SK-MEL-5 melanoma is 7.47 µM; with SK-OV-3 ovarian it was 8.16 µM; in the assay on TK-10 renal, 0.215 µM; with UO-31 renal, 8.41 µM. Moreover, the TGI in the assay with A498 renal is 0.169 µM; in the assay on LOX IMVI melanoma, 27.5 µM; with MCF7 breast it was 15.8 µM; in the assay with OVCAR-5 ovarian it was 3.84 µM; with PC-3 prostate, over 54.3 µM; in the assay with SK-MEL-2 melanoma, 27.4 µM. Also, the TGI was found to be 20.7 µM with SK-MEL-5 melanoma, 28.3 µM in the assay on SK-OV-3 ovarian, 1.36 µM with TK-10 renal and 37.4 µM with UO-31 renal.
As to `COc1ccc(/C=C/c2cnnc3ccccc23)cc1OC`, the TGI in the assay on A498 renal, in the assay with LOX IMVI melanoma, with MCF7 breast, in the assay with OVCAR-5 ovarian, in the assay on PC-3 prostate and in the assay on SK-MEL-2 melanoma was over 10 µM in each case. In addition, the TGI with SK-MEL-5 melanoma, in the assay on SK-OV-3 ovarian and with TK-10 renal was over 10 µM throughout.
For `COc1cc(Cl)c(C)cc1NC(=O)c1cc2ccccc2cc1O`, the GI50 in the assay with A498 renal is 1.65 µM; in the assay with LOX IMVI melanoma it was 2.49 µM; in the assay with MCF7 breast it was 2.38 µM; in the assay on OVCAR-5 ovarian, 3.47 µM; in the assay on PC-3 prostate, 2.33 µM; in the assay with SK-MEL-2 melanoma, 1.7 µM. In addition, the GI50 in the assay with SK-MEL-5 melanoma is 1.72 µM; in the assay on TK-10 renal it was 2.92 µM; in the assay on UO-31 renal, 1.29 µM. Besides, the TGI worked out at 4.77 µM in the assay with A498 renal; 10.8 µM in the assay with LOX IMVI melanoma; 13.2 µM in the assay with MCF7 breast; 14.1 µM with OVCAR-5 ovarian; 10.7 µM with PC-3 prostate; 4.01 µM in the assay on SK-MEL-2 melanoma. Moreover, the TGI in the assay with SK-MEL-5 melanoma came out at 3.93 µM; in the assay with TK-10 renal it was 7.26 µM; in the assay on UO-31 renal it was 10.6 µM.
Turning to `COc1cc(Nc2nccc(-c3cnn4ncccc34)n2)cc(OC)c1`, the GI50 was 0.0576 µM in the assay on A498 renal; 0.0539 µM with LOX IMVI melanoma; 0.0521 µM in the assay with MCF7 breast; 0.0759 µM in the assay with OVCAR-5 ovarian; 0.0843 µM with PC-3 prostate; 0.151 µM in the assay on SK-MEL-5 melanoma. The GI50 with SK-OV-3 ovarian was 0.418 µM; with TK-10 renal, 0.0982 µM; in the assay on UO-31 renal, 0.055 µM. In addition, the TGI in the assay with A498 renal was 0.183 µM; in the assay on LOX IMVI melanoma it was over 9.54 µM; in the assay on MCF7 breast, 0.2 µM; in the assay on OVCAR-5 ovarian, 1.9 µM; in the assay with PC-3 prostate, 2.74 µM; with SK-MEL-5 melanoma, 3.19 µM. The results for the TGI in the assay on SK-OV-3 ovarian, with TK-10 renal and in the assay with UO-31 renal were 9.84 µM, 0.406 µM and 0.196 µM, respectively.
